ChEMBL document CHEMBL1671626, “In vitro profiling of ceftaroline against a collection of recent bacterial clinical isolates from across the United States” (2008)
Values after ≈ are worked out from the molar mass of the structure shown.

Experiments:
Format in all cases: functional
Enterobacter cloacae [1] = assay: Antibacterial activity against ceftazidime-susceptible Enterobacter cloacae by CLSI M7-A7 broth microdilution method
Enterobacteriaceae [2] = assay: Antibacterial activity against ceftazidime-nonsusceptible Enterobacteriaceae by CLSI M7-A7 broth microdilution method
Enterococcus faecium = assay: Antibacterial activity against vancomycin-resistant Enterococcus faecium by CLSI M7-A7 broth microdilution method
Streptococcus agalactiae [3] = assay: Antibacterial activity against erythromycin-nonsusceptible Streptococcus agalactiae by CLSI M7-A7 broth microdilution method
Streptococcus pneumoniae [4] = assay: Antibacterial activity against penicillin-resistant Streptococcus pneumoniae by CLSI M7-A7 broth microdilution method
Enterobacter cloacae [5] = assay: Antibacterial activity against ceftazidime-nonsusceptible Enterobacter cloacae by CLSI M7-A7 broth microdilution method
Streptococcus agalactiae [6] = assay: Antibacterial activity against erythromycin-susceptible Streptococcus agalactiae by CLSI M7-A7 broth microdilution method
Klebsiella pneumoniae [7] = assay: Antibacterial activity against ceftazidime-susceptible Klebsiella pneumoniae by CLSI M7-A7 broth microdilution method
Streptococcus pyogenes [8] = assay: Antibacterial activity against erythromycin-susceptible Streptococcus pyogenes by CLSI M7-A7 broth microdilution method
Proteus mirabilis = assay: Antibacterial activity against ceftazidime-susceptible Proteus mirabilis by CLSI M7-A7 broth microdilution method
Escherichia coli [9] = assay: Antibacterial activity against ceftazidime-susceptible Escherichia coli by CLSI M7-A7 broth microdilution method
Providencia sp. = assay: Antibacterial activity against ceftazidime-susceptible Providencia sp. by CLSI M7-A7 broth microdilution method
Serratia marcescens = assay: Antibacterial activity against ceftazidime-susceptible Serratia marcescens by CLSI M7-A7 broth microdilution method
Escherichia coli [10] = assay: Antibacterial activity against ceftazidime-nonsusceptible Escherichia coli by CLSI M7-A7 broth microdilution method
Enterococcus faecalis [11] = assay: Antibacterial activity against vancomycin-susceptible Enterococcus faecalis by CLSI M7-A7 broth microdilution method
Acinetobacter [12] = assay: Antibacterial activity against multidrug-resistant Acinetobacter by CLSI M7-A7 broth microdilution method
Streptococcus pneumoniae [13] = assay: Antibacterial activity against penicillin-susceptible Streptococcus pneumoniae by CLSI M7-A7 broth microdilution method
Moraxella catarrhalis = assay: Antibacterial activity against beta lactamase-positive Moraxella catarrhalis by CLSI M7-A7 broth microdilution method
Pasteurella multocida = assay: Antibacterial activity against Pasteurella multocida by CLSI M7-A7 broth microdilution method
Klebsiella pneumoniae [14] = assay: Antibacterial activity against ceftazidime-nonsusceptible Klebsiella pneumoniae by CLSI M7-A7 broth microdilution method
Enterobacteriaceae [15] = assay: Antibacterial activity against ceftazidime-susceptible Enterobacteriaceae by CLSI M7-A7 broth microdilution method
Enterococcus faecalis [16] = assay: Antibacterial activity against vancomycin-resistant Enterococcus faecalis by CLSI M7-A7 broth microdilution method
Staphylococcus aureus [17] = assay: Antibacterial activity against methicillin-resistant Staphylococcus aureus by CLSI M7-A7 broth microdilution method
Streptococcus viridans [18] = assay: Antibacterial activity against penicillin-susceptible Streptococcus viridans by CLSI M7-A7 broth microdilution method
Citrobacter freundii [19] = assay: Antibacterial activity against ceftazidime-nonsusceptible Citrobacter freundii by CLSI M7-A7 broth microdilution method
Staphylococcus aureus [20] = assay: Antibacterial activity against coagulase-negative and oxacillin-susceptible Staphylococcus aureus by CLSI M7-A7 broth microdilution method
Staphylococcus aureus [21] = assay: Antibacterial activity against methicillin-susceptible Staphylococcus aureus by CLSI M7-A7 broth microdilution method
Streptococcus viridans [22] = assay: Antibacterial activity against penicillin-nonsusceptible Streptococcus viridans by CLSI M7-A7 broth microdilution method
Acinetobacter [23] = assay: Antibacterial activity against imipenem-susceptible Acinetobacter by CLSI M7-A7 broth microdilution method
Streptococcus pyogenes [24] = assay: Antibacterial activity against erythromycin-nonsusceptible Streptococcus pyogenes by CLSI M7-A7 broth microdilution method
Citrobacter freundii [25] = assay: Antibacterial activity against ceftazidime-susceptible Citrobacter freundii by CLSI M7-A7 broth microdilution method
Morganella morganii = assay: Antibacterial activity against ceftazidime-susceptible Morganella morganii by CLSI M7-A7 broth microdilution method
Haemophilus influenzae [26] = assay: Antibacterial activity against beta lactamase-positive Haemophilus influenzae by CLSI M7-A7 broth microdilution method
Haemophilus influenzae [27] = assay: Antibacterial activity against beta lactamase-negative Haemophilus influenzae by CLSI M7-A7 broth microdilution method
Staphylococcus aureus [28] = assay: Antibacterial activity against coagulase-negative and oxacillin-resistant Staphylococcus aureus by CLSI M7-A7 broth microdilution method
Staphylococcus aureus [29] = assay: Antibacterial activity against coagulase-negative and oxacillin-resistant Staphylococcus aureus assessed as resistant isolates by CLSI M7-A7 broth microdilution method
Staphylococcus aureus [30] = assay: Antibacterial activity against methicillin-susceptible Staphylococcus aureus assessed as susceptible isolates by CLSI M7-A7 broth microdilution method
Staphylococcus aureus [31] = assay: Antibacterial activity against methicillin-susceptible Staphylococcus aureus assessed as resistant isolates by CLSI M7-A7 broth microdilution method
Staphylococcus aureus [32] = assay: Antibacterial activity against coagulase-negative and oxacillin-susceptible Staphylococcus aureus assessed as resistant isolates by CLSI M7-A7 broth microdilution method
Staphylococcus aureus [33] = assay: Antibacterial activity against methicillin-resistant Staphylococcus aureus assessed as susceptible isolates by CLSI M7-A7 broth microdilution method
Staphylococcus aureus [34] = assay: Antibacterial activity against coagulase-negative and oxacillin-susceptible Staphylococcus aureus assessed as susceptible isolates by CLSI M7-A7 broth microdilution method
Staphylococcus aureus [35] = assay: Antibacterial activity against coagulase-negative and oxacillin-resistant Staphylococcus aureus assessed as susceptible isolates by CLSI M7-A7 broth microdilution method
Staphylococcus aureus [36] = assay: Antibacterial activity against methicillin-resistant Staphylococcus aureus assessed as resistant isolates by CLSI M7-A7 broth microdilution method

Compound: CCO/N=C(\C(=O)N[C@@H]1C(=O)N2C(C(=O)[O-])=C(Sc3nc(-c4cc[n+](C)cc4)cs3)CS[C@H]12)c1nsc(NP(=O)(O)O)n1 [CEFTAROLINE FOSAMIL]
- MIC50 (Enterobacter cloacae [1]): 0.12 µg/mL (≈ 0.175 µM)
- MIC90 (Enterobacter cloacae [1]): 1 µg/mL (≈ 1.46 µM)
- MIC50 (Enterobacteriaceae [2]): > 16 µg/mL
- MIC90 (Enterobacteriaceae [2]): > 16 µg/mL
- MIC50 (Enterococcus faecium): > 16 µg/mL
- MIC90 (Enterococcus faecium): > 16 µg/mL
- MIC50 (Streptococcus agalactiae [3]): 0.015 µg/mL (≈ 0.0219 µM)
- MIC90 (Streptococcus agalactiae [3]): 0.015 µg/mL (≈ 0.0219 µM)
- MIC50 (Streptococcus pneumoniae [4]): 0.12 µg/mL (≈ 0.175 µM)
- MIC90 (Streptococcus pneumoniae [4]): 0.12 µg/mL (≈ 0.175 µM)
- MIC50 (Enterobacter cloacae [5]): > 16 µg/mL
- MIC90 (Enterobacter cloacae [5]): > 16 µg/mL
- MIC50 (Streptococcus agalactiae [6]): 0.015 µg/mL (≈ 0.0219 µM)
- MIC90 (Streptococcus agalactiae [6]): 0.015 µg/mL (≈ 0.0219 µM)
- MIC50 (Klebsiella pneumoniae [7]): 0.06 µg/mL (≈ 0.0876 µM)
- MIC90 (Klebsiella pneumoniae [7]): 0.25 µg/mL (≈ 0.365 µM)
- MIC (Streptococcus pyogenes [8]): ≤ 0.008 µg/mL
- MIC50 (Streptococcus pyogenes [8]): ≤ 0.008 µg/mL
- MIC90 (Streptococcus pyogenes [8]): ≤ 0.008 µg/mL
- MIC50 (Proteus mirabilis): 0.06 µg/mL (≈ 0.0876 µM)
- MIC90 (Proteus mirabilis): 4 µg/mL (≈ 5.84 µM)
- MIC50 (Escherichia coli [9]): 0.06 µg/mL (≈ 0.0876 µM)
- MIC90 (Escherichia coli [9]): 0.5 µg/mL (≈ 0.73 µM)
- MIC50 (Providencia sp.): 1 µg/mL (≈ 1.46 µM)
- MIC90 (Providencia sp.): > 16 µg/mL
- MIC50 (Serratia marcescens): 0.5 µg/mL (≈ 0.73 µM)
- MIC90 (Serratia marcescens): 16 µg/mL (≈ 23.4 µM)
- MIC50 (Escherichia coli [10]): > 16 µg/mL
- MIC90 (Escherichia coli [10]): > 16 µg/mL
- MIC50 (Enterococcus faecalis [11]): 2 µg/mL (≈ 2.92 µM)
- MIC90 (Enterococcus faecalis [11]): 4 µg/mL (≈ 5.84 µM)
- MIC50 (Acinetobacter [12]): > 16 µg/mL
- MIC (Streptococcus pneumoniae [13]): ≤ 0.008 µg/mL
- MIC50 (Streptococcus pneumoniae [13]): ≤ 0.008 µg/mL
- MIC90 (Streptococcus pneumoniae [13]): 0.015 µg/mL (≈ 0.0219 µM)
- MIC50 (Moraxella catarrhalis): 0.06 µg/mL (≈ 0.0876 µM)
- MIC90 (Moraxella catarrhalis): 0.25 µg/mL (≈ 0.365 µM)
- MIC (Pasteurella multocida): ≤ 0.008 µg/mL
- MIC50 (Pasteurella multocida): ≤ 0.008 µg/mL
- MIC90 (Pasteurella multocida): 0.06 µg/mL (≈ 0.0876 µM)
- MIC50 (Klebsiella pneumoniae [14]): > 16 µg/mL
- MIC90 (Klebsiella pneumoniae [14]): > 16 µg/mL
- MIC50 (Enterobacteriaceae [15]): 0.06 µg/mL (≈ 0.0876 µM)
- MIC90 (Enterobacteriaceae [15]): 1 µg/mL (≈ 1.46 µM)
- MIC50 (Enterococcus faecalis [16]): 4 µg/mL (≈ 5.84 µM)
- MIC90 (Enterococcus faecalis [16]): 4 µg/mL (≈ 5.84 µM)
- MIC50 (Staphylococcus aureus [17]): 0.5 µg/mL (≈ 0.73 µM)
- MIC90 (Staphylococcus aureus [17]): 1 µg/mL (≈ 1.46 µM)
- MIC (Streptococcus viridans [18]): ≤ 0.008 µg/mL
- MIC50 (Streptococcus viridans [18]): ≤ 0.008 µg/mL
- MIC90 (Streptococcus viridans [18]): 0.03 µg/mL (≈ 0.0438 µM)
- MIC50 (Citrobacter freundii [19]): > 16 µg/mL
- MIC90 (Citrobacter freundii [19]): > 16 µg/mL
- MIC50 (Staphylococcus aureus [20]): 0.06 µg/mL (≈ 0.0876 µM)
- MIC90 (Staphylococcus aureus [20]): 0.12 µg/mL (≈ 0.175 µM)
- MIC50 (Staphylococcus aureus [21]): 0.25 µg/mL (≈ 0.365 µM)
- MIC90 (Staphylococcus aureus [21]): 0.25 µg/mL (≈ 0.365 µM)
- MIC50 (Streptococcus viridans [22]): 0.12 µg/mL (≈ 0.175 µM)
- MIC90 (Streptococcus viridans [22]): 0.5 µg/mL (≈ 0.73 µM)
- MIC50 (Acinetobacter [23]): 4 µg/mL (≈ 5.84 µM)
- MIC90 (Acinetobacter [23]): > 16 µg/mL
- MIC (Streptococcus pyogenes [24]): ≤ 0.008 µg/mL
- MIC50 (Streptococcus pyogenes [24]): ≤ 0.008 µg/mL
- MIC90 (Streptococcus pyogenes [24]): 0.015 µg/mL (≈ 0.0219 µM)
- MIC50 (Citrobacter freundii [25]): 0.12 µg/mL (≈ 0.175 µM)
- MIC90 (Citrobacter freundii [25]): 0.25 µg/mL (≈ 0.365 µM)
- MIC50 (Morganella morganii): 0.06 µg/mL (≈ 0.0876 µM)
- MIC90 (Morganella morganii): 16 µg/mL (≈ 23.4 µM)
- MIC50 (Haemophilus influenzae [26]): 0.015 µg/mL (≈ 0.0219 µM)
- MIC90 (Haemophilus influenzae [26]): 0.03 µg/mL (≈ 0.0438 µM)
- MIC (Haemophilus influenzae [27]): ≤ 0.008 µg/mL
- MIC50 (Haemophilus influenzae [27]): ≤ 0.008 µg/mL
- MIC90 (Haemophilus influenzae [27]): 0.015 µg/mL (≈ 0.0219 µM)
- MIC50 (Staphylococcus aureus [28]): 0.5 µg/mL (≈ 0.73 µM)
- MIC90 (Staphylococcus aureus [28]): 0.5 µg/mL (≈ 0.73 µM)

Compound: Cc1onc(-c2ccccc2)c1C(=O)N[C@@H]1C(=O)N2[C@@H]1SC(C)(C)[C@@H]2C(=O)O [OXACILLIN]
- Activity (Staphylococcus aureus [29]): 100%
- Activity (Staphylococcus aureus [30]): 100%
- MIC (Enterococcus faecium): > 8 µg/mL
- MIC50 (Enterococcus faecium): > 8 µg/mL
- MIC90 (Enterococcus faecium): > 8 µg/mL
- Activity (Staphylococcus aureus [31]): 0%
- Activity (Staphylococcus aureus [32]): 0%
- MIC50 (Enterococcus faecalis [11]): > 8 µg/mL
- MIC90 (Enterococcus faecalis [11]): > 8 µg/mL
- Activity (Staphylococcus aureus [33]): 0%
- Activity (Staphylococcus aureus [34]): 100%
- MIC50 (Moraxella catarrhalis): 4 µg/mL (≈ 9.96 µM)
- MIC90 (Moraxella catarrhalis): > 8 µg/mL
- MIC50 (Enterococcus faecalis [16]): > 8 µg/mL
- MIC90 (Enterococcus faecalis [16]): > 8 µg/mL
- Activity (Staphylococcus aureus [35]): 0%
- MIC50 (Staphylococcus aureus [17]): > 8 µg/mL
- MIC90 (Staphylococcus aureus [17]): > 8 µg/mL
- MIC50 (Staphylococcus aureus [20]): 0.12 µg/mL (≈ 0.299 µM)
- MIC90 (Staphylococcus aureus [20]): 0.25 µg/mL (≈ 0.623 µM)
- MIC50 (Staphylococcus aureus [21]): 0.25 µg/mL (≈ 0.623 µM)
- MIC90 (Staphylococcus aureus [21]): 0.5 µg/mL (≈ 1.25 µM)
- Activity (Staphylococcus aureus [36]): 100%
- MIC50 (Staphylococcus aureus [28]): > 8 µg/mL
- MIC90 (Staphylococcus aureus [28]): > 8 µg/mL
